In patent US20250051300A1, “GRAM-NEGATIVE SPECIFIC ANTIBIOTICS SPARING EFFECT ON GUT MICROBIOME” (THE BOARD OF TRUSTEES OF THE UNIVERSITY OF ILLINOIS, priority 2021, published 2025):
Values after ≈ are worked out from the molar mass of the structure shown. Where two headings read alike, the source gives them in different places.

Tests used:
Escherichia coli = test: MIC, micro-dilution broth method (CLSI); format: cell-based; details: Escherichia coli
Aqueous solubility limit = format: physicochemical; details: cation-adjusted Mueller Hinton broth (MIC assay medium); limit to which compounds were tested in MIC assays
Enterobacter cloacae = test: MIC, micro-dilution broth method (CLSI); format: cell-based

Q: With `Fc1ccc(COc2cccc(-c3n[nH]cc3-c3ccncc3)c2)cc1` [Compound 2, 4-(3-(3-((4-fluorobenzyl)oxy)phenyl)-1H-pyrazol-4-yl)pyridine] as the compound, how does the MIC (Escherichia coli; ATCCBAA2471, E. coli ATCC BAA-2471, read-out: MIC) read?
A: > 32 µg/mL

Q: What about the MIC (Escherichia coli; E. coli AR0048, read-out: MIC) of the same compound?
A: > 32 µg/mL

Q: What about the MIC (Escherichia coli; E. coli AR0055, read-out: MIC) of the same compound?
A: > 32 µg/mL

Q: What about the MIC (Escherichia coli; E. coli AR0058, read-out: MIC) of the same compound?
A: > 32 µg/mL

Q: And the MIC (Escherichia coli; E. coli AR0061, read-out: MIC)?
A: > 32 µg/mL

Q: And the MIC (Escherichia coli; E. coli AR0067, read-out: MIC)?
A: > 32 µg/mL

Q: What about the MIC (Escherichia coli; E. coli AR0069, read-out: MIC) of the same compound?
A: > 32 µg/mL

Q: What about the MIC (Escherichia coli; E. coli AR0077, read-out: MIC) of the same compound?
A: 8 µg/mL (≈ 23.2 µM)

Q: What about the MIC (Escherichia coli; E. coli AR0081, read-out: MIC) of the same compound?
A: 16 µg/mL (≈ 46.3 µM)

Q: And the MIC (Escherichia coli; E. coli AR0084, read-out: MIC)?
A: > 32 µg/mL

Q: And the MIC (Escherichia coli; E. coli AR0085, read-out: MIC)?
A: > 32 µg/mL

Q: What about the MIC (Escherichia coli; E. coli AR0086, read-out: MIC) of the same compound?
A: 8 µg/mL (≈ 23.2 µM)

Q: What about the MIC (Escherichia coli; E. coli AR0089, read-out: MIC) of the same compound?
A: > 32 µg/mL

Q: What about the MIC (Escherichia coli; E. coli AR0104, read-out: MIC) of the same compound?
A: 16 µg/mL (≈ 46.3 µM)

Q: What about the MIC (Escherichia coli; E. coli AR0114, read-out: MIC) of the same compound?
A: > 32 µg/mL

Q: And the MIC (Escherichia coli; E. coli AR0118, read-out: MIC)?
A: 16 µg/mL (≈ 46.3 µM)

Q: What about the MIC (Escherichia coli; E. coli AR0119, read-out: MIC) of the same compound?
A: > 32 µg/mL

Q: What about the MIC (Escherichia coli; E. coli AR0128, read-out: MIC) of the same compound?
A: 16 µg/mL (≈ 46.3 µM)

Q: What about the MIC (Escherichia coli; E. coli AR0137, read-out: MIC) of the same compound?
A: 16 µg/mL (≈ 46.3 µM)

Q: And the MIC (Escherichia coli; E. coli AR0149, read-out: MIC)?
A: > 32 µg/mL

Q: And the MIC (Escherichia coli; E. coli AR0150, read-out: MIC)?
A: 16 µg/mL (≈ 46.3 µM)

Q: And the MIC (Escherichia coli; E. coli AR0151, read-out: MIC)?
A: > 32 µg/mL

Q: And the MIC (Escherichia coli; E. coli AR0162, read-out: MIC)?
A: > 32 µg/mL

Q: What about the MIC (Escherichia coli; E. coli AR0346, read-out: MIC) of the same compound?
A: > 32 µg/mL

Q: What about the MIC (Escherichia coli; E. coli AR0348, read-out: MIC) of the same compound?
A: > 32 µg/mL

Q: And the MIC (Escherichia coli; E. coli AR0350, read-out: MIC)?
A: > 32 µg/mL

Q: And the MIC (Escherichia coli; E. coli AR0493, read-out: MIC)?
A: > 32 µg/mL

Q: And the MIC (Escherichia coli; E. coli AR0494, read-out: MIC)?
A: > 32 µg/mL

Q: What about the MIC (Escherichia coli; E. coli AR0495, read-out: MIC) of the same compound?
A: > 32 µg/mL

Q: And the MIC (Escherichia coli; E. coli AR0541, read-out: MIC)?
A: > 32 µg/mL

Q: And the MIC (Escherichia coli; E. coli AR0543, read-out: MIC)?
A: > 32 µg/mL

Q: What about the MIC (Escherichia coli; E. coli AR0546, read-out: MIC) of the same compound?
A: > 32 µg/mL

Q: And the MIC (Escherichia coli; E. coli AR0551, read-out: MIC)?
A: > 32 µg/mL

Q: And the MIC (Escherichia coli; E. coli AR0559, read-out: MIC)?
A: > 32 µg/mL

Q: What about the MIC (Escherichia coli; E. coli AR-0349 (colistin-resistant clinical isolate), read-out: MIC) of the same compound?
A: > 32 µg/mL

Q: And the MIC (Escherichia coli; E. coli AR-0549, read-out: MIC)?
A: > 32 µg/mL

Q: And the MIC (Escherichia coli; E. coli ELZ 4004, read-out: MIC)?
A: > 32 µg/mL

Q: What about the MIC (Escherichia coli; E. coli ELZ 4017, read-out: MIC) of the same compound?
A: 8 µg/mL (≈ 23.2 µM)

Q: What about the MIC (Escherichia coli; E. coli ELZ 4042, read-out: MIC) of the same compound?
A: > 32 µg/mL

Q: And the MIC (Escherichia coli; E. coli ELZ 4072, read-out: MIC)?
A: 8 µg/mL (≈ 23.2 µM)

Q: And the MIC (Escherichia coli; E. coli ELZ 4081, read-out: MIC)?
A: 4 µg/mL (≈ 11.6 µM)

Q: And the MIC (Escherichia coli; E. coli ELZ 4139, read-out: MIC)?
A: > 32 µg/mL

Q: What about the MIC (Escherichia coli; E. coli ELZ 4239, read-out: MIC) of the same compound?
A: > 32 µg/mL

Q: And the MIC (Escherichia coli; E. coli ELZ 4277, read-out: MIC)?
A: > 32 µg/mL

Q: And the MIC (Escherichia coli; E. coli ELZ 4346, read-out: MIC)?
A: > 32 µg/mL

Q: And the MIC (Escherichia coli; E. coli ΔrfaC JW3596 (permeability mutant))?
A: 1 µg/mL (≈ 2.9 µM)

Q: What about the MIC (Escherichia coli; E. coli ΔtolC JW5503 (efflux-deficient)) of the same compound?
A: 0.06 µg/mL (≈ 0.174 µM)

Q: And the solubility (Aqueous solubility limit)?
A: 32 µg/mL (≈ 92.7 µM)

Q: And the MIC (Enterobacter cloacae; E. cloacae AR-0163)?
A: >32 µg/mL

Q: What about the MIC (Enterobacter cloacae; E. cloacae ATCC BAA-2468) of the same compound?
A: >32 µg/mL

Q: What about the MIC (Enterobacter cloacae; Enterobacter cloacae, ATCC29893, E. cloacae ATCC 29893, read-out: MIC) of the same compound?
A: > 32 µg/mL

Q: And the MIC (Enterobacter cloacae; Enterobacter cloacae, ATCCBAA2341, E. cloacae ATCC BAA-2341, read-out: MIC)?
A: > 32 µg/mL

Q: What about the MIC (Enterobacter cloacae; Enterobacter cloacae, ATCCBAA2468, E. cloacae ATCC BAA-2468, read-out: MIC) of the same compound?
A: > 32 µg/mL

Q: And the MIC (Enterobacter cloacae; Enterobacter cloacae, E. cloacae AR0032, read-out: MIC)?
A: > 32 µg/mL

Q: And the MIC (Enterobacter cloacae; Enterobacter cloacae, E. cloacae AR0038, read-out: MIC)?
A: > 32 µg/mL

Q: What about the MIC (Enterobacter cloacae; Enterobacter cloacae, E. cloacae AR0050, read-out: MIC) of the same compound?
A: 8 µg/mL (≈ 23.2 µM)

Q: And the MIC (Enterobacter cloacae; Enterobacter cloacae, E. cloacae AR0053, read-out: MIC)?
A: > 32 µg/mL

Q: What about the MIC (Enterobacter cloacae; Enterobacter cloacae, E. cloacae AR0060, read-out: MIC) of the same compound?
A: 16 µg/mL (≈ 46.3 µM)

Q: And the MIC (Enterobacter cloacae; Enterobacter cloacae, E. cloacae AR0065, read-out: MIC)?
A: 16 µg/mL (≈ 46.3 µM)

Q: And the MIC (Enterobacter cloacae; Enterobacter cloacae, E. cloacae AR0072, read-out: MIC)?
A: > 32 µg/mL

Q: What about the MIC (Enterobacter cloacae; Enterobacter cloacae, E. cloacae AR0073, read-out: MIC) of the same compound?
A: > 32 µg/mL

Q: What about the MIC (Enterobacter cloacae; Enterobacter cloacae, E. cloacae AR0093, read-out: MIC) of the same compound?
A: > 32 µg/mL

Q: What about the MIC (Enterobacter cloacae; Enterobacter cloacae, E. cloacae AR0132, read-out: MIC) of the same compound?
A: > 32 µg/mL

Q: And the MIC (Enterobacter cloacae; Enterobacter cloacae, E. cloacae AR0136, read-out: MIC)?
A: > 32 µg/mL

Q: What about the MIC (Enterobacter cloacae; Enterobacter cloacae, E. cloacae AR0154, read-out: MIC) of the same compound?
A: 8 µg/mL (≈ 23.2 µM)

Q: And the MIC (Enterobacter cloacae; Enterobacter cloacae, E. cloacae AR0164, read-out: MIC)?
A: > 32 µg/mL

Q: What about the MIC (Enterobacter cloacae; Enterobacter cloacae, E. cloacae AR0544, read-out: MIC) of the same compound?
A: > 32 µg/mL

Q: What about the MIC (Enterobacter cloacae; Enterobacter cloacae, E. cloacae AR0545, read-out: MIC) of the same compound?
A: > 32 µg/mL

Q: And the MIC (Enterobacter cloacae; Enterobacter cloacae, E. cloacae AR-0163, read-out: MIC)?
A: > 32 µg/mL
